How the values were obtained:
corn rust = experiment: protectant activity in vivo against corn rust; details: for pest or weed control at 6.25 µg/mL / pest or weed control at 25 µg/mL / pest or weed control at 100 µg/mL / pest or weed control at 400 µg/mL: Zea mays, 168 h, protectant activity; for pest or weed control at 6.25 µg/mL: read-out: control effect against corn rust (%), 6.25 mg/L; for pest or weed control at 25 µg/mL: read-out: control effect against corn rust (%), 25 mg/L; for pest or weed control at 100 µg/mL: read-out: control effect against corn rust (%), 100 mg/L; for pest or weed control at 400 µg/mL: read-out: control effect against corn rust (%), 400 mg/L
Diamond back moth = experiment: insecticidal activity against diamond back moth, airbrush spray; type: in vivo; details: for pest or weed control at 600 µg/mL: 600 mg/L; for control (test results against diamond back moth): mortality after 72 hrs
Summary of the method: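 Airbrush leaf-disc spray test: both faces of 2 cm cabbage discs received 0.5 ml of test solution at 0.7 kg/cm^2. Solutions were made in acetone:methanol (1:1) and brought to concentration with 0.1% Tween 80 in water. Ten second-instar larvae per disc, triplicates, were held at 25° C and 60˜70% R.H., with mortality recorded at 72 hrs.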

wheat powdery mildew = experiment: protectant activity in vivo against wheat powdery mildew; details: for pest or weed control at 6.25 µg/mL / pest or weed control at 25 µg/mL / pest or weed control at 100 µg/mL / pest or weed control at 400 µg/mL: Triticum aestivum, 168 h, protectant activity; for pest or weed control at 6.25 µg/mL: read-out: control effect against wheat powdery mildew (%), 6.25 mg/L; for pest or weed control at 25 µg/mL: read-out: control effect against wheat powdery mildew (%), 25 mg/L; for pest or weed control at 100 µg/mL: read-out: control effect against wheat powdery mildew (%), 100 mg/L; for pest or weed control at 400 µg/mL: read-out: control effect against wheat powdery mildew (%), 400 mg/L
armyworm = experiment: bioactivity test against armyworm, airbrush spray; type: in vivo; details: for control (test results against armyworm): mortality after 72 h
[1] = test system: Green peach aphids (Myzus Persicae Sulzer); experiment: bioactivity test against green peach aphid, airbrush foliar spray; type: in vivo; details: for pest or weed control at 10 µg/mL / pest or weed control at 100 µg/mL / pest or weed control at 600 µg/mL / Insecticidal activity against peach aphid (%): contrastive test; for pest or weed control at 10 µg/mL / pest or weed control at 100 µg/mL / pest or weed control at 600 µg/mL: read-out: Insecticidal activity against peach aphid (%)
Summary of the method: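 Aphids (15-30 per cabbage leaf disc) on moist filter paper were airbrush-sprayed at 10 psi, 0.5 mL, with compound from acetone:methanol (1:1) diluted in water with 0.1% tween 80. Held at 25±1 C, 60±5% RH; survivors counted after 48 hrs to give death rates.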

carmine spider mite = experiment: bioactivity test against carmine spider mite, airbrush spray; type: in vivo; details: for pest or weed control at 600 µg/mL / pest or weed control at 10 µg/mL / pest or weed control at 100 µg/mL: Tetranychus cinnabarinus, 72 h, read-out: Insecticidal activity against carmine spider mite (% ); for control against carmine spider mite: mortality after 72 hrs
Summary of the method: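 Broadbean seedlings infested with adult mites were sprayed with compound (acetone/methanol stock diluted in 0.1% Tween 80 water) by airbrush at 0.7 kg/cm^2, 0.5 ml. Three replicates were run. Mortality was scored after 72 hrs.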

[2] = 72 h, 600 mg/L, read-out: Insecticidal activity against armyworm (%)
[3] = Myzus persicae, foliar, 48 h, 10 mg/L
[4] = Myzus persicae, foliar, 48 h, 100 mg/L
[5] = Myzus persicae, foliar, 48 h, 600 mg/L
[6] = 2.5 ppm, death rate after 48 hrs
[7] = 10 ppm, death rate after 48 hrs
[8] = 100 ppm, death rate after 48 hrs
[9] = 600 ppm, death rate after 48 hrs

CCc1ncnc(NCc2ccc(Oc3nc(Cl)c(Cl)cc3Cl)cc2)c1Cl [CK36, reference compound]
0%: pest or weed control at 6.25 µg/mL (corn rust) | pest or weed control at 10 µg/mL (Diamond back moth; 72 h, 10 mg/L) | pest or weed control at 100 µg/mL (Diamond back moth; 72 h, 100 mg/L) | pest or weed control at 6.25 µg/mL (wheat powdery mildew) | pest or weed control at 600 µg/mL (armyworm; [2]) | pest or weed control at 10 µg/mL [1, 3] | pest or weed control at 600 µg/mL (carmine spider mite; 600 mg/L, contrastive test)
40%: pest or weed control at 25 µg/mL (corn rust)
80%: pest or weed control at 100 µg/mL (wheat powdery mildew)
20%: pest or weed control at 600 µg/mL (Diamond back moth; 72 h)
100%: pest or weed control at 400 µg/mL (corn rust) | pest or weed control at 400 µg/mL (wheat powdery mildew)
60%: pest or weed control at 100 µg/mL (corn rust) | pest or weed control at 25 µg/mL (wheat powdery mildew)
90%: pest or weed control at 600 µg/mL [1, 5]
14%: pest or weed control at 100 µg/mL [1, 4]

CCc1ncnc(NCCc2ccc(Oc3ccc(C(F)(F)F)cn3)cc2)c1Cl [Compound I-6756]
71%: Insecticidal activity against carmine spider mite (% ) (carmine spider mite; 2.5 mg/L)
100%: protectant activity against corn rust in vivo (corn rust; 100 ppm) | protectant activity against corn rust in vivo (corn rust; 400 ppm) | control (test results against diamond back moth) (Diamond back moth; 100 ppm) | control (test results against diamond back moth) (Diamond back moth; 600 ppm) | protectant activity against wheat powdery mildew in vivo (wheat powdery mildew; 100 ppm) | protectant activity against wheat powdery mildew in vivo (wheat powdery mildew; 400 ppm) | Insecticidal activity against armyworm (%) (armyworm; 100 mg/L) | Insecticidal activity against armyworm (%) (armyworm; 600 mg/L) | control (test results against armyworm) (armyworm; 100 ppm) | control (test results against armyworm) (armyworm; 600 ppm) | Insecticidal activity against peach aphid (%) ([1]; 1.25 mg/L) | Insecticidal activity against peach aphid (%) ([1]; 2.5 mg/L) | Insecticidal activity against peach aphid (%) ([1]; 5 mg/L) | Insecticidal activity against peach aphid (%) ([1]; 10 mg/L) | Insecticidal activity against peach aphid (%) ([1]; 100 mg/L) | Insecticidal activity against peach aphid (%) ([1]; 600 mg/L) | control (test results against green peach aphid) [1, 6] | control (test results against green peach aphid) ([1]; 5 ppm, death rate after 48 hrs) | control (test results against green peach aphid) [1, 7] | control (test results against green peach aphid) [1, 8] | control (test results against green peach aphid) [1, 9] | Insecticidal activity against carmine spider mite (% ) (carmine spider mite; 10 mg/L, contrastive test) | Insecticidal activity against carmine spider mite (% ) (carmine spider mite; 100 mg/L, contrastive test) | Insecticidal activity against carmine spider mite (% ) (carmine spider mite; 600 mg/L, contrastive test) | control against carmine spider mite (carmine spider mite; 10 ppm) | control against carmine spider mite (carmine spider mite; 100 ppm) | control against carmine spider mite (carmine spider mite; 600 ppm)
28%: Insecticidal activity against armyworm (%) (armyworm; 10 mg/L)
88%: Insecticidal activity against carmine spider mite (% ) (carmine spider mite; 5 mg/L)

CCc1ncnc(NCCc2ccc(Oc3ccc(C(F)(F)F)cn3)cc2)c1Cl [Compound I-6757]
28%: pest or weed control at 10 µg/mL (armyworm; 72 h, 10 mg/L, read-out: Insecticidal activity against armyworm (%))
97%: pest or weed control at 10 µg/mL (carmine spider mite; 10 mg/L, contrastive test)
100%: protectant activity against corn rust in vivo (corn rust; 100 ppm) | protectant activity against corn rust in vivo (corn rust; 400 ppm) | control (test results against diamond back moth) (Diamond back moth; 100 ppm) | control (test results against diamond back moth) (Diamond back moth; 600 ppm) | protectant activity against wheat powdery mildew in vivo (wheat powdery mildew; 100 ppm) | protectant activity against wheat powdery mildew in vivo (wheat powdery mildew; 400 ppm) | control (test results against armyworm) (armyworm; 100 ppm) | control (test results against armyworm) (armyworm; 600 ppm) | pest or weed control at 100 µg/mL (armyworm; 72 h, 100 mg/L, read-out: Insecticidal activity against armyworm (%)) | pest or weed control at 600 µg/mL (armyworm; [2]) | Insecticidal activity against peach aphid (%) ([1]; 1.25 mg/L) | Insecticidal activity against peach aphid (%) ([1]; 2.5 mg/L) | Insecticidal activity against peach aphid (%) ([1]; 5 mg/L) | Insecticidal activity against peach aphid (%) ([1]; 10 mg/L) | Insecticidal activity against peach aphid (%) ([1]; 100 mg/L) | Insecticidal activity against peach aphid (%) ([1]; 600 mg/L) | control (test results against green peach aphid) [1, 6] | control (test results against green peach aphid) [1, 7] | control (test results against green peach aphid) [1, 8] | control (test results against green peach aphid) [1, 9] | pest or weed control at 5 ppm ([1]; Myzus persicae, foliar, 48 h, 5 ppm, death rate after 48 hrs) | control against carmine spider mite (carmine spider mite; 100 ppm) | control against carmine spider mite (carmine spider mite; 600 ppm) | pest or weed control at 100 µg/mL (carmine spider mite; 100 mg/L, contrastive test) | pest or weed control at 600 µg/mL (carmine spider mite; 600 mg/L, contrastive test)
75%: Insecticidal activity against carmine spider mite (% ) (carmine spider mite; 2.5 mg/L)
80%: Insecticidal activity against carmine spider mite (% ) (carmine spider mite; 5 mg/L)

Cc1ncnc(NC(C)c2ccc(Oc3ccc(C(F)(F)F)cc3Cl)cc2)c1Cl (stereo not shown) [CK30, reference compound]
0%: pest or weed control at 6.25 µg/mL (corn rust) | pest or weed control at 25 µg/mL (corn rust) | pest or weed control at 100 µg/mL (corn rust) | pest or weed control at 400 µg/mL (corn rust) | pest or weed control at 600 µg/mL (Diamond back moth; 72 h) | pest or weed control at 6.25 µg/mL (wheat powdery mildew) | pest or weed control at 10 µg/mL [1, 3]
20%: pest or weed control at 25 µg/mL (wheat powdery mildew)
50%: pest or weed control at 100 µg/mL [1, 4]
100%: pest or weed control at 400 µg/mL (wheat powdery mildew) | pest or weed control at 100 µg/mL (carmine spider mite; 100 mg/L, contrastive test) | pest or weed control at 600 µg/mL (carmine spider mite; 600 mg/L, contrastive test)
93%: pest or weed control at 600 µg/mL [1, 5]
80%: pest or weed control at 100 µg/mL (wheat powdery mildew)
28%: pest or weed control at 10 µg/mL (carmine spider mite; 10 mg/L, contrastive test)
57%: pest or weed control at 600 µg/mL (armyworm; [2])

From patent US9770026B2, “Substituted pyrimidine compound and uses thereof” (Shenyang Sinochem Agrochemicals R&D Co., Ltd., priority 2012, dated 2017)
